Results from patent US8609680B2, “2,3-dihydro-1H-inden-1-yl-2,7-diazaspiro[3.5] nonane derivatives” (Pfizer Inc., priority 2010, dated 2013).
Like-named read-outs stand apart in the source and are kept apart here.

Key:
human GHSR1a [1] = target: T1, human GHSR1a (Homo sapiens, UniProt Q92847); assay: Human Ghrelin SPA Binding Assay
T1 construct: expressed in transfected cells; host or cells: HEK293 Tetracycline-Inducible cell line, used as membranes
Excerpt: The SPA format was utilized for high throughput screening of test compounds and filter binding served for more comprehensive binding characterization.
Human Ghrelin SPA Binding Assay

human GHSR1a [2] = target: T1, human GHSR1a; assay: Human Ghrelin Functional Assay (DELFIA GTP-binding assay); type: biochemical; conditions: GTP-Europium exchange, human GHSR1a membranes, with and without ghrelin at EC80
Description: Human Ghrelin Functional Assay
To measure the ability of test compounds in the present invention to modulate the activity of human GHSR1a (agonize, antagonize, partially agonize, inversely agonize), a DELFIA GTP-binding assay (Perkin Elmer, AD0260 and AD0261) is performed. The assay monitors the ligand-dependent exchange of GDP for GTP. GPCR activation results in an increase in fluorescence as receptor-bound GDP is replaced by Europium-labeled GTP.
Ghrelin functional assays are performed in a final volume of 39.5 μl containing 720 ng human GHSR1a (HEK293 Tetracycline-Inducible cell line expressing the human growth secretagogue receptor la, prepared as membranes), 9 nM GTP-Europium and varying concentrations of test compound or vehicle. To test for receptor antagonism, membranes are incubated in the presence of agonist ghrelin (Anaspec, 24158) at the EC80 concentration, plus test compound or vehicle.
Briefly, test compounds are prepared at room temperature in 384-well plates (Matrix, 4340). […] Samples are then transferred as 6 μl to 384-well filter plates (Pall, 5071) containing 30 μl of 24 μg/ml hGHSR1a membrane and 0.35 mg/ml saponin (Perkin Elmer, AD0261) in basal buffer.
The mixture is incubated 24 minutes at room temperature with gentle shaking, followed by the addition of 3.5 μl of 100 nM GTP-Europium in 50 mM HEPES, pH 7.4. Samples are shielded from light and incubated for 90 minutes further at room temperature with gentle shaking. The reactions are suctioned dry with vacuum, washed three times with 75 μl ice cold 1× GTP Wash Solution (Perkin Elmer, AD0261), and immediately read on the Envision 2101 Multilabel Reader (Perkin Elmer) using excitation filter 320 nm and emission filter 615 nm.

[3] = SPA format, [125I] ghrelin displacement, human GHSR1a membranes, Ki=IC50/(1+[ligand]/Kd)

T1 sequence (Q92847 whole entry): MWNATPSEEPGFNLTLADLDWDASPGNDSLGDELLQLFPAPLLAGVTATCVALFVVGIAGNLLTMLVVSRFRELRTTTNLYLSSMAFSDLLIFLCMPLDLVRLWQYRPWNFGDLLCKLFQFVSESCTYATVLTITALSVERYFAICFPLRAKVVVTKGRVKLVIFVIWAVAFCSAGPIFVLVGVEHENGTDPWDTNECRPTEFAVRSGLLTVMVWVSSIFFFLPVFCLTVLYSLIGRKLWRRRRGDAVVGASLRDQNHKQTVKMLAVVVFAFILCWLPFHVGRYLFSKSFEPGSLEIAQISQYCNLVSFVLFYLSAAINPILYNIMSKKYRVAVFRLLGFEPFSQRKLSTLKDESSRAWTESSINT

| SMILES | IC50 (human GHSR1a [1]) [nM] | Ki (human GHSR1a [1]) [nM] | functional comment (human GHSR1a [2]) | IC50 (human GHSR1a [1]; SPA format, [125I] ghrelin displacement, human GHSR1a membranes from HEK293 Tetracycline-Inducible cell line) [nM] | Ki (human GHSR1a [1]; [3]) [nM] |
| --- | --- | --- | --- | --- | --- |
| Cc1cc(-c2ccc3c(c2)CC[C@H]3N2CC3(CCN(C(=O)Cc4cn5c(C)c(C)sc5n4)CC3)C2)ncn1 [Example 3AR] | 33.9 | 30.3 | inverse agonist | – | – |
| Cc1cc(-c2ccc3c(c2)CC[C@H]3N2CC3(CCN(C(=O)Cc4ccc5c(n4)OCCO5)CC3)C2)ncn1 [Example 3D] | 10.2 | 8.91 | inverse agonist | – | – |
| Cc1nccc(-c2ccc3c(c2)CC[C@H]3N2CC3(CCN(C(=O)Cc4ccc5c(n4)OCCO5)CC3)C2)n1 [Example 3E, 6-(2-{2-[(1R)-5-(2-methylpyrimidin-4-yl)-2,3-dihydro-1H-inden-1-yl]-2,7-diazaspiro[3.5]non-7-yl}-2-oxoethyl)-2,3-dihydro[1,4]dioxino[2,3-b]pyridine] | 20.7 | 18.5 | inverse agonist | – | – |
| Cc1cc(-c2ccc3c(c2)CC[C@H]3N2CC3(CCN(C(=O)Cc4cn5cc(C)sc5n4)CC3)C2)ncn1 [Example 3F] | – | 4.37 | inverse agonist | 5.02 | – |
| COc1ccc(CC(=O)N2CCC3(CC2)CN([C@@H]2CCc4cc(-c5ncccn5)ccc42)C3)nc1 [Example 3G] | 21.2 | – | inverse agonist | – | – |
| COc1ccc(CC(=O)N2CCC3(CC2)CN([C@@H]2CCc4cc(-c5ncc(C)cn5)ccc42)C3)nc1 [Example 3H] | 9.51 | – | inverse agonist | – | 9.17 |
| Cc1ccc(CC(=O)N2CCC3(CC2)CN([C@@H]2CCc4cc(-c5ncccn5)ccc42)C3)nc1 [Example 3I] | 31 | – | inverse agonist | – | 27.8 |
| Cc1cc(-c2ccc3c(c2)CC[C@H]3N2CC3(CCN(C(=O)Cc4cn5ccccc5n4)CC3)C2)ncn1 [Example 3L] | 23 | 20.2 | inverse agonist | – | – |
| COc1ccc(CC(=O)N2CCC3(CC2)CN([C@@H]2CCc4cc(-c5ccn(C)n5)ccc42)C3)nc1 [Example 3N] | 82.6 | 71.3 | inverse agonist | – | – |
| COc1ccc(CC(=O)N2CCC3(CC2)CN([C@@H]2CCc4cc(-c5nccc(C)n5)ccc42)C3)nc1 [Example 3S] | 17.8 | 15.3 | inverse agonist | – | – |
| Cc1ccnc(-c2ccc3c(c2)CC[C@H]3N2CC3(CCN(C(=O)Cc4ccc5c(n4)OCCO5)CC3)C2)n1 [Example 3U] | 8.08 | 6.9 | inverse agonist | – | – |
| CCc1cnc(-c2ccc3c(c2)CC[C@H]3N2CC3(CCN(C(=O)Cc4ccc(OC)cc4)CC3)C2)nc1 [Example 3W] | 17.2 | 14.8 | inverse agonist | – | – |
| Cc1ccn2cc(CC(=O)N3CCC4(CC3)CN([C@@H]3CCc5cc(-c6ncccn6)ccc53)C4)nc2c1 [Example 3X] | 36.6 | 31.6 | inverse agonist | – | – |
| Cc1cc(-c2ccc3c(c2)CC[C@H]3N2CC3(CCN(C(=O)Cc4cn5nc(C)sc5n4)CC3)C2)ncn1 [Example 3Z, 7-[(2-methylimidazo[2,1-b][1,3,4]thiadiazol-6-yl)acetyl]-2-[(1R)-5-(6-methylpyrimidin-4-yl)-2,3-dihydro-1H-inden-1-yl]-2,7-diazaspiro[3.5]nonane] | 6.78 | 6.07 | inverse agonist | – | – |
| CCc1ccc(CC(=O)N2CCC3(CC2)CN([C@@H]2CCc4cc(-c5ncccn5)ccc42)C3)nc1 [Example 5B] | 11.5 | 10.4 | inverse agonist | – | – |
| Cc1ccc(CC(=O)N2CCC3(CC2)CN([C@@H]2CCc4cc(-n5nccn5)ccc42)C3)nc1 [Example 5C] | – | – | inverse agonist | – | 10.5 |
| COc1ccc(CC(=O)N2CCC3(CC2)CN([C@@H]2CCc4cc(-c5cc(C)nc(C)n5)ccc42)C3)nc1 [Example 5G] | 39.9 | 33 | inverse agonist | – | – |
